According to ChEMBL document CHEMBL1201862, “PubChem BioAssay data set” (2004):
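Compound exposure: 48 hours, 5 concentrations, 96-well plates. The concentration for 50% growth inhibition is given as GI50.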 The source made the active and inactive calls. Cut-off read from the data, not from the text of the source: active = GI50 up to about 1.1 µM and inactive = higher.

Key:
Test in all cases: NCI-60 cell line screen, 48 h
TK-10 = system: TK-10
DMS-114 = system: DMS-114
SNB-19 = system: SNB-19
NCI-H23 = system: NCI-H23
A549 = system: A549
HL-60 = system: HL-60
DLD-1 = system: DLD-1
UO-31 = system: UO-31
ACHN = system: ACHN
SR = system: SR
XF498 = system: XF498
SW-620 = system: SW-620
DMS-273 = system: DMS-273
EKVX = system: EKVX
HCC 2998 = system: HCC 2998

Compound	GI50 (TK-10)	GI50 (DMS-114)	GI50 (SNB-19)	GI50 (NCI-H23)	GI50 (A549)	GI50 (HL-60)	GI50 (DLD-1)	GI50 (UO-31)	GI50 (ACHN)	GI50 (SR)	GI50 (XF498)	GI50 (SW-620)	GI50 (DMS-273)	GI50 (EKVX)	GI50 (HCC 2998)
N#CCCOCN(CO)c1nc(N(CO)COCCC#N)nc(N(CO)COCCC#N)n1	34 µM (inactive)	24.3 µM (inactive)	53.6 µM (inactive)	31.2 µM (inactive)	26.1 µM (inactive)	17.7 µM (inactive)	26.7 µM (inactive)	21.7 µM (inactive)	28.6 µM (inactive)	17.3 µM (inactive)	17.5 µM (inactive)	16.1 µM (inactive)	18.7 µM (inactive)	31.2 µM (inactive)	
CCOP(=O)(OCC)C1CCCOC1=O (stereo not given)	> 100 µM (inactive)	> 100 µM (inactive)	> 100 µM (inactive)	> 100 µM (inactive)	> 100 µM (inactive)	> 100 µM (inactive)	> 100 µM (inactive)	> 100 µM (inactive)	> 100 µM (inactive)		> 100 µM (inactive)	> 100 µM (inactive)	> 100 µM (inactive)	> 100 µM (inactive)	> 100 µM (inactive)
C=C(c1ccccc1)c1cc2c(=O)[nH]ccc2n1C	55.3 µM (inactive)	19.1 µM (inactive)	48 µM (inactive)	30.1 µM (inactive)	31.7 µM (inactive)	16.3 µM (inactive)	31.9 µM (inactive)	18.5 µM (inactive)	35.7 µM (inactive)		30.5 µM (inactive)	28.5 µM (inactive)	27.5 µM (inactive)	39.4 µM (inactive)	35 µM (inactive)
C1=CC(=P(c2ccccc2)(c2ccccc2)c2ccccc2)C=C1	20.7 µM (inactive)	4.65 µM (inactive)	4.67 µM (inactive)	11.5 µM (inactive)	14.1 µM (inactive)	2.77 µM (inactive)	12.5 µM (inactive)	15.9 µM (inactive)	14.2 µM (inactive)		2.91 µM (inactive)	16.1 µM (inactive)	9.91 µM (inactive)	24.2 µM (inactive)	10.6 µM (inactive)
COC(=O)C(/C(=N/NC(N)=O)C(=O)Nc1c(C)cccc1C(C)(C)C)c1nc2ccc(Cl)cc2nc1O (stereo not given)	> 100 µM (inactive)	> 100 µM (inactive)	> 100 µM (inactive)	> 100 µM (inactive)	> 100 µM (inactive)	> 100 µM (inactive)	> 100 µM (inactive)	> 100 µM (inactive)	> 100 µM (inactive)	37.5 µM (inactive)	> 100 µM (inactive)	> 100 µM (inactive)	> 100 µM (inactive)	75.5 µM (inactive)	> 100 µM (inactive)
CC1OC(OCC2COC(O)(Oc3c(-c4ccc(O)c(O)c4)oc4cc(O)cc(O)c4c3=O)C(O)C2O)C(O)C(O)C1O (stereo not given)	> 100 µM (inactive)	> 100 µM (inactive)	> 100 µM (inactive)	> 100 µM (inactive)	> 100 µM (inactive)	> 100 µM (inactive)	> 100 µM (inactive)	> 100 µM (inactive)	> 100 µM (inactive)	> 100 µM (inactive)	> 100 µM (inactive)	> 100 µM (inactive)	> 100 µM (inactive)	> 100 µM (inactive)	> 100 µM (inactive)
CS(=O)(=O)C1(Br)S(=O)(=O)OCCOS1(=O)=O	> 100 µM (inactive)	> 100 µM (inactive)	> 100 µM (inactive)	> 100 µM (inactive)	> 100 µM (inactive)	> 100 µM (inactive)	> 100 µM (inactive)	> 100 µM (inactive)	> 100 µM (inactive)	> 100 µM (inactive)	> 100 µM (inactive)	> 100 µM (inactive)	> 100 µM (inactive)	> 100 µM (inactive)	> 100 µM (inactive)
COc1ccc(C2ON(c3ccccn3)CC=C2C)cc1 (stereo not given)		> 100 µM (inactive)	> 100 µM (inactive)	78.3 µM (inactive)	> 100 µM (inactive)	> 100 µM (inactive)	> 100 µM (inactive)	34.5 µM (inactive)	> 100 µM (inactive)	58.9 µM (inactive)	> 100 µM (inactive)	> 100 µM (inactive)	> 100 µM (inactive)	> 100 µM (inactive)	> 100 µM (inactive)
CSc1nc2nccnc2c(=O)[nH]1	> 100 µM (inactive)	> 100 µM (inactive)	> 100 µM (inactive)	> 100 µM (inactive)	> 100 µM (inactive)	> 100 µM (inactive)	> 100 µM (inactive)	> 100 µM (inactive)	> 100 µM (inactive)	> 100 µM (inactive)	> 100 µM (inactive)	> 100 µM (inactive)	> 100 µM (inactive)	> 100 µM (inactive)	> 100 µM (inactive)
CCN(/N=C1\CC2C=CCN(C2)C(=O)Cc2c1[nH]c1ccccc21)S(=O)(=O)c1ccc(C)cc1 (stereo not given)	> 100 µM (inactive)	64.6 µM (inactive)	81.8 µM (inactive)	87.5 µM (inactive)	49.8 µM (inactive)	73.1 µM (inactive)	53.3 µM (inactive)	39.4 µM (inactive)	> 100 µM (inactive)	64.4 µM (inactive)	> 100 µM (inactive)	78 µM (inactive)	62.4 µM (inactive)	40.3 µM (inactive)	> 100 µM (inactive)
C(=C\C(Sc1ccccc1)c1ccccc1)/NNC1=NN=C(c2ccccc2)C(c2ccccc2)N1 (stereo not given)	61.2 µM (inactive)	35.8 µM (inactive)	48.6 µM (inactive)	31.2 µM (inactive)	58.7 µM (inactive)	15.2 µM (inactive)	18.2 µM (inactive)	18.8 µM (inactive)	44.7 µM (inactive)	25.9 µM (inactive)	77.1 µM (inactive)	21.8 µM (inactive)	44.6 µM (inactive)	32.9 µM (inactive)	27.7 µM (inactive)
CC1CCC2(NC1)OC1CC3[C@@H]4CC=C5C=CCC[C@]5(C)C4CC[C@]3(C)C1C2C (stereo not given in full)	15.3 µM (inactive)	20.8 µM (inactive)	38.5 µM (inactive)	32.3 µM (inactive)	24 µM (inactive)	12.3 µM (inactive)	23.3 µM (inactive)	21.8 µM (inactive)	22.9 µM (inactive)		17.6 µM (inactive)	19.7 µM (inactive)	> 10 µM (inactive)	19.6 µM (inactive)	17.2 µM (inactive)
O=[N+]([O-])C1C2C=CC(C2)[C@H]1c1ccco1 (stereo not given in full)	> 100 µM (inactive)	> 100 µM (inactive)	> 100 µM (inactive)	0.384 µM (active)	> 100 µM (inactive)	> 100 µM (inactive)	> 100 µM (inactive)	> 100 µM (inactive)	> 100 µM (inactive)	> 100 µM (inactive)	> 100 µM (inactive)	> 100 µM (inactive)	> 100 µM (inactive)	> 100 µM (inactive)	> 100 µM (inactive)
COc1ccc(-c2cc(=O)c3c(O)cccc3o2)c(OC)c1OC	47.1 µM (inactive)	18.6 µM (inactive)		> 100 µM (inactive)	26.6 µM (inactive)	10.1 µM (inactive)	> 100 µM (inactive)		61 µM (inactive)		65.6 µM (inactive)	22.4 µM (inactive)	13.7 µM (inactive)		> 100 µM (inactive)
c1ccc(COc2ccc3[nH]c4c5c6ccccc6nc-5c[nH]c4c3c2)cc1	21.9 µM (inactive)	16.6 µM (inactive)	17.7 µM (inactive)	18.3 µM (inactive)	17.8 µM (inactive)	2.19 µM (inactive)	12.4 µM (inactive)	18.7 µM (inactive)	17.5 µM (inactive)	8.95 µM (inactive)	13.7 µM (inactive)	17.3 µM (inactive)	16.6 µM (inactive)	17.7 µM (inactive)	10.5 µM (inactive)
